The structures appear in SMILES notation.

The assay has as its target T1, P2X7 receptor (Homo sapiens, UniProt Q99572).
T1 construct: stably expressing the full length P2X7 receptor; expressed in transfected cells
T1 sequence (Q99572 1-595): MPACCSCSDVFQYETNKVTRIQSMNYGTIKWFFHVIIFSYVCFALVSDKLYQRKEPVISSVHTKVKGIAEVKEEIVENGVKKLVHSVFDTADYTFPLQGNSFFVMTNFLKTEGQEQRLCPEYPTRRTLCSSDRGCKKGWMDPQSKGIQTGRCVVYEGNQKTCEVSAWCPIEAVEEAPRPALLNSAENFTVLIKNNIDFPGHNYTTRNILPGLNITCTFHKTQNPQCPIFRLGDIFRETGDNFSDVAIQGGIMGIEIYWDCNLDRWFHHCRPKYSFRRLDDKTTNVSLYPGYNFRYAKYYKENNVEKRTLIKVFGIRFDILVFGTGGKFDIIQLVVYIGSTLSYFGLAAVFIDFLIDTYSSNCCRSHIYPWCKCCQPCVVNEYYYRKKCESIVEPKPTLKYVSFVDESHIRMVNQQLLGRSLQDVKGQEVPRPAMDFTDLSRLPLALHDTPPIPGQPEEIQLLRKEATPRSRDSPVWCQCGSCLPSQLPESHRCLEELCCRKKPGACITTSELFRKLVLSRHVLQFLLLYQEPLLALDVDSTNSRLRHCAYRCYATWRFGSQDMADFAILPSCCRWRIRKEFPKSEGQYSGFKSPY
In words: Ca++ flux assay (FLIPR) in P2X7-HEK-293 cell line stably expressing the full length P2X7 receptor, Bz-ATP activation. The format is cell-based. As to conditions: P2X7-HEK-293 cells; agonist Bz-ATP; fluorescence as total area over 90 seconds; read-out: P2X7 Ca Flux hu IC50. On the procedure: The ability of Triazolopyrazinone Compounds to inhibit P2X7 function can be determined in Ca^++ flux assay using a P2X7-HEK-293 cell line stably expressing the full length P2X7 receptor. The assay protocol is as described in Cheewatrakoolpong et al., Biochem. Biophys. Res. Commun. 332:17-27 (2005) with minor modification, and is as summarized hereinafter. Briefly, cells were plated in poly-D-lysine-coated wells, and incubated at 37° C. for 24 hours. Cells were then incubated for 1 hour with a loading buffer which contains a dye sensitive to changes in Ca^++ concentration (lx Calcium Plus no wash dye from Molecular Devices, Sunnyvale, Calif.). The test compounds were added to the wells in the dye loading step. Plates containing the wells were transferred to a Fluorometric Imaging Plate Reader (Molecular Devices, Sunnyvale, Calif.). The cells were activated by the addition of the P2X7 receptor agonist 2′(3) —O-(4-benzoylbenzoyl)adenosine 5′-triphosphate (Bz-ATP from Sigma-Aldrich, St. Louis, Mo.), and the fluorescence was monitored for 90 seconds. The fluorescent signal was determined as the total area over the 90 second run time. Using this protocol, representative Triazolopyrazinone Compounds, compounds 1471 were tested. Tables 3 to 6 show the concentration at which 50% of the maximum response in the Ca^++ was inhibited (IC50) for each of the test compounds.
On to `Cc1c(-n2ccn3c(SCc4nc5ccccc5n4C)nnc3c2=O)cccc1C(F)(F)F` [Compound 3, 3-((1-methyl-1H-benzo[d]imidazol-2-yl)methylthio)-7-(2-methyl-3-(trifluoromethyl)phenyl)-[1,2,4]triazolo[4,3-a]pyrazin-8(7H)-one], for which the IC50 (as a rule, the midpoint of a concentration-inhibition curve) worked out at 5670 nM. The figure for `Cc1c(-n2ccn3c(SCc4cccc5c4-c4ccccc4C5)nnc3c2=O)cccc1C(F)(F)F` [Compound 4, 3-((9H-fluoren-4-yl)methylthio)-7-(2-methyl-3-(trifluoromethyl)phenyl)-[1,2,4]triazolo[4,3-a]pyrazin-8(7H)-one] is 264 nM; for `Cc1cccc(-c2ccccc2CSc2nnc3c(=O)n(-c4cccc(C(F)(F)F)c4C)ccn23)c1` [Compound 5, 7-(2-methyl-3-(trifluorornethyl)phenyl)-3-((3'-methylbiphenyl-2-yl)methylthio)-[1,2,4]triazolo[4,3-a]pyrazin-8(7H)-one] it is 30.4 nM. On to `Cc1ccc(-c2ccccc2CSc2nnc3c(=O)n(-c4cccc(C(F)(F)F)c4C)ccn23)s1` [Compound 6, 7-(2-methyl-3-(trifluoromethyl)phenyl)-3-(2-(5-methylthiophen-2-yl)benzylthio)-[1,2,4]triazolo[4,3-a]pyrazin-8(7H)-one], for which the IC50 turned out to be 37 nM.

Consider `Cc1ccc(-c2ccccc2CSc2nnc3c(=O)n(-c4cccc(C(F)(F)F)c4C)ccn23)cc1` [Compound 7, 7-(2-methyl-3-(trifluoromethyl)phenyl)-3-((4′-methylbiphenyl-2-yl)methylthio)-[1,2,4]triazolo[4,3-a]pyrazin-8(7H)-one], for which the IC50 stood at 66.7 nM. For `Cc1c(-n2ccn3c(SCc4ccccc4-c4ccc(C(F)(F)F)cc4)nnc3c2=O)cccc1C(F)(F)F` [Compound 8, 7-(2-methyl-3-(trifluoromethyl)phenyl)-3-((4′-(trifluoromethyl)biphenyl-2-yl)rnethylthio)-[1,2,4]triazolo[4,3-a]pyrazin-8(7H)-one] the value was 905 nM; for `Cc1c(-n2ccn3c(SCc4ccccc4-c4ccc(Cl)cc4)nnc3c2=O)cccc1C(F)(F)F` [Compound 9, 3-((4′-chlorobiphenyl-2-yl)nrethylthio)-7-(2-methyl-3-(trifluoromethyl)phenyl)-[1,2,4]triazolo[4,3-a]pyrazin-8(7H)-one], 102 nM. The figure for `Cc1c(-n2ccn3c(SCc4ccccc4-c4ccc(F)cc4)nnc3c2=O)cccc1C(F)(F)F` [Compound 10, 3-((4′-fluorobiphenyl-2-yl)rnethylthio)-7-(2-methyl-3-(trifluoromethyl)phenyl)-[1,2,4]triazolo[4,3-a]pyrazin-8(7H)-one] is 42.6 nM. The figure for `Cc1c(-n2ccn3c(SCc4ccccc4I)nnc3c2=O)cccc1C(F)(F)F` [Compound 11] is 106 nM; for `Cc1c(-n2ccn3c(SCc4ccccc4Br)nnc3c2=O)cccc1C(F)(F)F` [Compound 12, 3-(2-bromobenzylthio)-7-(2-methyl-3-(trifluoromethyl)phenyl)-[1,2,4]triazolo[4,3-a]pyrazin-8(7H)-one] it is 107 nM; for `Cc1c(-n2ccn3c(SCc4cccc(F)c4Cl)nnc3c2=O)cccc1C(F)(F)F` [Compound 13, 3-(2-chloro-3-fluorobenzylthio)-7-(2-methyl-3-(trifluoromethyl)phenyl)-[1,2,4]triazolo[4,3-a]pyrazin-8(7H)-one] it is 130 nM.

For `Cc1c(-n2ccn3c(SCc4ccsc4)nnc3c2=O)cccc1C(F)(F)F` [Compound 14, 7-(2-methyl-3-(trifluoromethyl)phenyl)-3-(thiophen-3-ylmethylthio)-[1,2,4]triazolo[4,3-a]pyrazin-8(7H)-one], the IC50 was determined as 38.1 nM. For `Cc1c(-n2ccn3c(SCc4cccs4)nnc3c2=O)cccc1C(F)(F)F` [Compound 15, 7-(2-methyl-3-(trifluoromethyl)phenyl)-3-(thiophen-2-ylmethylthio)-[1,2,4]triazolo[4,3-a]pyrazin-8(7H)-one] the value was 30.4 nM.

Consider `Cc1c(Cl)cccc1-n1ccn2c(SCc3cccc(F)c3Cl)nnc2c1=O` [Compound 16, 7-(3-chloro-2-methylphenyl)-3-(2-chloro-3-fluorobenzylthio)-[1,2,4]triazolo[4,3-a]pyrazin-8(7H)-one], for which the IC50 came to 286 nM. The figure for `Cc1onc(-c2ccccc2)c1CSc1nnc2c(=O)n(-c3cccc(C(F)(F)F)c3C)ccn12` [Compound 17, 7-(2-methyl-3-(trifluoromethyl)phenyl)-3-((5-methyl-3-phenylisoxazo1-4-yl)methylthio)-[1,2,4]triazolo[4,3-a]pyrazin-8(7H)-one] is 543 nM; for `Cc1c(-n2ccn3c(SCc4ccccc4C(C)(C)C)nnc3c2=O)cccc1C(F)(F)F` [Compound 18, 3-(2-tert-butylbenzylthio)-7-(2-methyl-3-(trifluoromethyl)phenyl)-[1,2,4]triazolo[4,3-a]pyrazin-8(7H)-one] it is 56.9 nM. For `Cc1c(Cl)cccc1-n1ccn2c(SCc3ccccc3C(C)(C)C)nnc2c1=O` [Compound 19, 3-(2-tent-butylbenzylthio)-7-(3-chloro-2-methylphenyl)-[1,2,4]triazolo[4,3-a]pyrazin-8(7H)-one] the value was 165 nM; for `Cc1c(-n2ccn3c(SCc4ccccc4Oc4ccccc4)nnc3c2=O)cccc1C(F)(F)F` [Compound 20, 7-(2-methyl-3-(trifluoromethyl)phenyl)-3-(2-phenoxybenzylthio)-[1,2,4]triazolo[4,3-a]pyrazin-8(7H)-one], 144 nM. For `[2H]c1c([2H])c([2H])c(CSc2nnc3c(=O)n(-c4cccc(C(F)(F)F)c4C)ccn23)c([2H])c1[2H]` [Compound 21, deuterated-7-[2-methyl-3-(trifluoromethyl)phenyl]-3-[(phenyl-(d5)-methy)thio]-1,2,4-triazolo[4,3-a]pyrazin-8(7H)-one] the value was 84.9 nM; for `Cc1c(-n2ccn3c(SC(C(=O)c4ccccc4)c4ccccc4)nnc3c2=O)cccc1C(F)(F)F` (stereo not drawn) [Compound 22, 7-(2-methyl-3-(trifluoromethyl)phenyl)-3-(2-oxo-1,2-diphenylethylthio)-[1,2,4]triazolo[4,3-a]pyrazin-8(7H)-one], 1450 nM; for `Cc1c(-n2ccn3c(SCc4ccccc4-c4cccs4)nnc3c2=O)cccc1C(F)(F)F` [Compound 23, 7-(2-methyl-3-(trifluoromethyl)phenyl)-3-(2-(thiophen-2-yl)benzylthio)-[1,2,4]triazolo[4,3-a]pyrazin-8(7H)-one], 40.4 nM. Take `Cc1c(Cl)cccc1-n1ccn2c(SCc3ccccc3B(O)O)nnc2c1=O` [Compound 24, 2-((7-(3-chloro-2-methylphenyl)-8-oxo-7,8-dihydro-[1,2,4]triazolo[4,3-a]pyrazin-3-ylthio)rnethyl)phenylboronic acid]: the IC50 is 1010 nM. For `O=c1c2nnc(SC(c3ccccc3)c3ccccc3)n2ccn1-c1cccc(C(F)(F)F)c1Cl` [Compound 25, 3-(benzhydrylthio)-7-(2-chloro-3-(trifluoromethyl)phenyl)-[1,2,4]triazolo[4,3-a]pyrazin-8(7H)-one] the value was 41.7 nM; for `O=c1c2nnc(SC3c4ccccc4-c4ccccc43)n2ccn1-c1cccc(C(F)(F)F)c1Cl` [Compound 26, 3-(9H-fluoren-9-ylthio)-7-(2-chloro-3-(trifluoromethyl)phenyl)-[1,2,4]triazolo[4,3-a]pyrazin-8(7H)-one], 47 nM; for `O=c1c2nnc(SCc3cccc4ccccc34)n2ccn1-c1cccc(C(F)(F)F)c1Cl` [Compound 27, 7-(2-chloro-3-(trifluoromethyl)phenyl)-3-(naphthalen-1-ylmethylthio)-[1,2,4]triazolo[4,3-a]pyrazin-8(7H)-one], 166 nM. `Cc1c(-n2ccn3c(SCc4ccccc4Cl)nnc3c2=O)cccc1C(F)(F)F` [Compound 28, 3-(2-chlorobenzylthio)-7-(2-methyl-3-(trifluoromethyl)phenyl)-[1,2,4]triazolo[4,3-a]pyrazin-8(7H)-one]: the IC50 was 148 nM. The figure for `O=c1c2nnc(SCc3ccccc3)n2ccn1-c1cccc2ccccc12` [Compound 29, 3-(benzylthio)-7-(naphthalen-1-yl)-[1,2,4]-triazolo[4,3-a]pyrazin-8(7H)-one] is 3630 nM.
